Source: PubChem BioAssay (NCI)
Several values for one entry are separate records, joined by “and”; a condition that tells them apart may be missing. Equal entries are not always repeated.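 A five-concentration, 48-hour dose response in 96-well plates underlies each endpoint, interpolated linearly between surrounding concentrations. GI50: concentration for 50% inhibition of growth. TGI denotes the concentration required for complete inhibition of growth.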

Legend:
Test in all cases: DTP human tumour cell line panel, 48 h
HL-60(TB) leukemia = tested on: HL-60(TB) leukemia
M14 melanoma = tested on: M14 melanoma
MALME-3M melanoma = tested on: MALME-3M melanoma
NCI-H460 lung = tested on: NCI-H460 lung
OVCAR-5 ovarian = tested on: OVCAR-5 ovarian
SK-MEL-2 melanoma = tested on: SK-MEL-2 melanoma
SK-OV-3 ovarian = tested on: SK-OV-3 ovarian
SN12C renal = tested on: SN12C renal
SR leukemia = tested on: SR leukemia
T-47D breast = tested on: T-47D breast

SMILES	TGI (HL-60(TB) leukemia)	TGI (M14 melanoma)	TGI (MALME-3M melanoma)	TGI (NCI-H460 lung)	TGI (OVCAR-5 ovarian)	TGI (SK-MEL-2 melanoma)	TGI (SK-OV-3 ovarian)	TGI (SN12C renal)	TGI (SR leukemia)	TGI (T-47D breast)	GI50 (OVCAR-5 ovarian)	GI50 (SK-MEL-2 melanoma)	GI50 (SN12C renal)	GI50 (T-47D breast)
CCOC(=O)/C(=C\c1ccc(N(C)C)cc1)S(=O)(=O)C(F)(F)C(F)(F)C(F)(F)C(F)(F)F	> 100 µM	> 100 µM	> 100 µM	> 100 µM	> 100 µM	> 100 µM	> 100 µM	> 100 µM	> 100 µM	> 100 µM				
COc1cc(C2SCC(=O)N2c2ccc(-n3c(-c4ccccc4)nc4ccccc4c3=O)cc2)ccc1O (configuration not stated)	> 100 µM	> 100 µM	> 100 µM	> 100 µM	> 100 µM	> 100 µM	> 100 µM		> 100 µM	> 100 µM				
COc1cc(OC)c2c(O)c3c(cc2c1)CC(C)(C)CC3=O	> 100 µM	> 100 µM	> 100 µM	> 100 µM	> 100 µM	> 100 µM	> 100 µM	> 100 µM	> 100 µM	> 100 µM				
CN(C)c1nc(NC23CC4CC(CC(C4)C2)C3)nc(N(C)C)n1	13.5 µM	> 57.9 µM	> 71.5 µM	> 100 µM	> 100 µM	63.1 µM	> 100 µM	> 85.4 µM	53.9 µM	49.6 µM				
CCOC(=O)Oc1cc2c(c(OC)c1OC)-c1ccc(SC)c(=O)cc1C(NC(=O)C(F)(F)F)CC2 (configuration not stated)	0.0148 µM	38.8 µM		0.753 µM and 2.47 µM	> 100 µM	51.4 µM		> 100 µM	5.4 µM and 15.6 µM	81 µM	18.2 µM	0.00303 µM	0.0135 µM	21.4 µM
COC1=C(N=[N+]=[N-])C(=O)c2ncccc2C1=O	3.98 µM	8.66 µM	5.03 µM	32.6 µM	33.8 µM	37.5 µM	28.5 µM	29.1 µM	> 100 µM	3.85 µM				
NC(=Nc1ccc(O)cc1)S(=O)(=O)O	> 100 µM	> 100 µM	> 100 µM	> 100 µM	> 100 µM	> 100 µM	> 100 µM	> 100 µM	> 100 µM	> 100 µM				
CCOc1cc(NC(C)=O)ccc1C(=O)NN1C(=O)C(Oc2ccccc2)C1c1ccccc1 (configuration not stated)	> 100 µM		> 100 µM	> 100 µM	> 100 µM	> 100 µM	> 100 µM	> 100 µM	23.7 µM	> 100 µM				
Cc1ccc(S(=O)(=O)/N=C(\NN)Nc2ccc(Cl)cc2)cc1	> 100 µM	> 100 µM		> 100 µM	> 100 µM	> 100 µM	> 100 µM	> 100 µM	> 100 µM	> 100 µM				
COC(=O)c1ccccc1C#CC#Cc1ccccc1C(=O)OC	8.25 µM	> 10 µM	> 10 µM	> 10 µM	> 10 µM	> 10 µM	> 10 µM	> 10 µM	> 10 µM	> 10 µM				
NC(=O)c1nnc2cc(F)ccc2c1N	> 100 µM	> 100 µM	> 100 µM	> 100 µM	> 100 µM	> 100 µM	> 100 µM	> 100 µM	> 100 µM	> 100 µM				
CN(C)c1ccc(/C=C2\N=C(NN)NC2=O)cc1	> 100 µM	> 100 µM	> 100 µM	> 100 µM	> 100 µM	> 100 µM	> 100 µM	> 100 µM	> 100 µM	> 100 µM				
COC(=O)C(C)(N=Cc1ccccc1)c1ccccc1 (configuration not stated)	> 100 µM	> 100 µM	> 100 µM	> 100 µM	> 100 µM	> 100 µM	> 100 µM	> 100 µM	> 100 µM	> 100 µM				
O=C1CSC(/C(=C\c2ccc(Cl)cc2)c2nc3ccccc3[nH]2)=N1	> 68.8 µM	40.3 µM	31.6 µM	32.2 µM	33.5 µM	34.5 µM	24.1 µM	34.2 µM	94.4 µM	31.7 µM				
CC(C)C(C/C=C1\CC(CO)(COC(=O)c2ccccc2)OC1=O)C(C)C (configuration not stated)		32.8 µM	31.9 µM	43.7 µM	28 µM	> 100 µM	87.9 µM	31.1 µM	> 100 µM	> 100 µM				
Clc1ccc(Cc2nc3ccc(CCN4CCN(c5ccccc5)CC4)cc3[nH]2)cc1	> 100 µM	19.2 µM	32.9 µM	27.8 µM	66.4 µM	30.6 µM	38.4 µM	33.8 µM	36 µM	33.6 µM				
O=[N+]([O-])/C(C(Cl)=C(Cl)Cl)=C1\NCCO1	> 100 µM	> 100 µM	> 100 µM	> 100 µM	> 100 µM	> 100 µM	> 100 µM	> 100 µM	> 100 µM	> 100 µM				
CN(C(=O)Cc1ccc(Cl)c(Cl)c1)[C@H]1CCCC[C@@H]1[N+]1(C)CCCC1		> 100 µM	> 100 µM		> 100 µM	> 100 µM	> 100 µM	> 100 µM	> 100 µM	> 100 µM				
CC1(C)N=C(C(N)=O)c2ncn(CCO)c2N1	> 100 µM	> 100 µM	> 100 µM	> 100 µM	> 100 µM		> 100 µM	> 100 µM	> 100 µM	> 100 µM				
ClC(Cl)(Cl)C1=N[C@H]2[C@H](Br)[C@@H]3O[C@@H](c4ccccc4)[C@H](c4ccccc4)O[C@@H]3[C@H]2O1		50.3 µM	36.2 µM	30 µM	37.5 µM	31.3 µM	40.5 µM	37.2 µM	52.2 µM	> 100 µM				
CC(C)SC(C)(NC(=O)C1C(C)(C)CCC1(C)C)C(=O)O (configuration not stated)	> 100 µM	> 100 µM		> 100 µM	> 100 µM	> 100 µM	> 100 µM	> 100 µM	> 100 µM	> 100 µM				
COc1ccc(S(=O)(=O)O)cc1-n1nc(C(=O)Nc2ccccc2)n[n+]1-c1cc(S(=O)(=O)[O-])ccc1OC	> 100 µM	> 100 µM	> 100 µM	> 100 µM	> 100 µM		> 100 µM	> 100 µM	> 100 µM	> 100 µM				
